In PubChem BioAssay (NCI):
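Tested at 5 concentrations; 48 h exposure; 96-well plates; endpoints linearly interpolated, else capped at highest concentration. GI50 = concentration required for 50% inhibition of growth. TGI is the concentration that stops growth completely.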

What was measured:
Experiment in all cases: NCI tumour cell line growth inhibition, 48 h
786-0 renal = system: 786-0 renal
A498 renal = system: A498 renal
A549 NSCLC = system: A549 NSCLC
ACHN renal = system: ACHN renal
BT-549 breast = system: BT-549 breast
CAKI-1 renal = system: CAKI-1 renal
CCRF-CEM leukemia = system: CCRF-CEM leukemia
COLO 205 colon = system: COLO 205 colon
DU-145 prostate = system: DU-145 prostate
HCC-2998 colon = system: HCC-2998 colon
HCT-116 colon = system: HCT-116 colon
HCT-15 colon = system: HCT-15 colon
HL-60(TB) leukemia = system: HL-60(TB) leukemia
HOP-92 NSCLC = system: HOP-92 NSCLC
HS 578T breast = system: HS 578T breast
HT29 colon = system: HT29 colon
IGROV1 ovarian = system: IGROV1 ovarian
K-562 leukemia = system: K-562 leukemia
KM12 colon = system: KM12 colon
LOX IMVI melanoma = system: LOX IMVI melanoma
M14 melanoma = system: M14 melanoma
MALME-3M melanoma = system: MALME-3M melanoma
MCF7 breast = system: MCF7 breast
MDA-MB-231 breast = system: MDA-MB-231 breast
MDA-MB-435 = system: MDA-MB-435
MOLT-4 leukemia = system: MOLT-4 leukemia
NCI-H226 lung = system: NCI-H226 lung
NCI-H23 lung = system: NCI-H23 lung
NCI-H460 lung = system: NCI-H460 lung
NCI-H522 lung = system: NCI-H522 lung
NCI/ADR-RES ovarian = system: NCI/ADR-RES ovarian
OVCAR-3 ovarian = system: OVCAR-3 ovarian
OVCAR-4 ovarian = system: OVCAR-4 ovarian
OVCAR-5 ovarian = system: OVCAR-5 ovarian
OVCAR-8 ovarian = system: OVCAR-8 ovarian
PC-3 prostate = system: PC-3 prostate
RPMI-8226 leukemia = system: RPMI-8226 leukemia
RXF 393 renal = system: RXF 393 renal
SF-268 CNS = system: SF-268 CNS
SF-295 CNS = system: SF-295 CNS
SF-539 CNS = system: SF-539 CNS
SK-MEL-2 melanoma = system: SK-MEL-2 melanoma
SK-MEL-28 melanoma = system: SK-MEL-28 melanoma
SK-MEL-5 melanoma = system: SK-MEL-5 melanoma
SK-OV-3 ovarian = system: SK-OV-3 ovarian
SN12C renal = system: SN12C renal
SNB-19 CNS = system: SNB-19 CNS
SNB-75 CNS = system: SNB-75 CNS
SR leukemia = system: SR leukemia
SW-620 colon = system: SW-620 colon
T-47D breast = system: T-47D breast
TK-10 renal = system: TK-10 renal
U251 CNS = system: U251 CNS
UACC-257 melanoma = system: UACC-257 melanoma
UACC-62 melanoma = system: UACC-62 melanoma
UO-31 renal = system: UO-31 renal

SMILES: O=C1/C(=C/c2ccc([N+](=O)[O-])s2)Oc2ccccc21
- GI50 (786-0 renal): 2420 nM
- TGI (786-0 renal): 6290 nM
- GI50 (A498 renal): 3220 nM
- TGI (A498 renal): 18000 nM
- GI50 (A549 NSCLC): 1660 nM
- TGI (A549 NSCLC): 3880 nM
- GI50 (ACHN renal): 568 nM
- TGI (ACHN renal): 1770 nM
- GI50 (BT-549 breast): 745 nM
- TGI (BT-549 breast): 1980 nM
- GI50 (CAKI-1 renal): 2200 nM
- TGI (CAKI-1 renal): 5220 nM
- GI50 (CCRF-CEM leukemia): 282 nM
- TGI (CCRF-CEM leukemia): 874 nM
- GI50 (COLO 205 colon): 1260 nM
- TGI (COLO 205 colon): 2660 nM
- GI50 (DU-145 prostate): 2430 nM
- TGI (DU-145 prostate): 5560 nM
- GI50 (HCC-2998 colon): 1420 nM
- TGI (HCC-2998 colon): 2890 nM
- GI50 (HCT-116 colon): 267 nM
- TGI (HCT-116 colon): 791 nM
- GI50 (HCT-15 colon): 246 nM
- TGI (HCT-15 colon): 688 nM
- GI50 (HL-60(TB) leukemia): 960 nM
- GI50 (HOP-92 NSCLC): 557 nM
- TGI (HOP-92 NSCLC): 2290 nM
- GI50 (HS 578T breast): 882 nM
- TGI (HS 578T breast): > 48600 nM
- GI50 (HT29 colon): 771 nM
- TGI (HT29 colon): 4670 nM
- GI50 (IGROV1 ovarian): 839 nM
- TGI (IGROV1 ovarian): 2450 nM
- GI50 (K-562 leukemia): 243 nM
- TGI (K-562 leukemia): 728 nM
- GI50 (KM12 colon): 352 nM
- TGI (KM12 colon): 1280 nM
- GI50 (LOX IMVI melanoma): 434 nM
- TGI (LOX IMVI melanoma): 1640 nM
- GI50 (M14 melanoma): 1170 nM
- TGI (M14 melanoma): 3570 nM
- GI50 (MALME-3M melanoma): 1390 nM
- TGI (MALME-3M melanoma): 3920 nM
- GI50 (MCF7 breast): 750 nM
- TGI (MCF7 breast): 5020 nM
- GI50 (MDA-MB-231 breast): 279 nM
- TGI (MDA-MB-231 breast): 818 nM
- GI50 (MDA-MB-435): 1300 nM
- TGI (MDA-MB-435): 3170 nM
- GI50 (MOLT-4 leukemia): 654 nM
- TGI (MOLT-4 leukemia): 3230 nM
- GI50 (NCI-H226 lung): 2240 nM
- TGI (NCI-H226 lung): 5750 nM
- GI50 (NCI-H23 lung): 1310 nM
- TGI (NCI-H23 lung): 3190 nM
- GI50 (NCI-H460 lung): 1510 nM
- TGI (NCI-H460 lung): 3530 nM
- GI50 (NCI-H522 lung): 189 nM
- TGI (NCI-H522 lung): 382 nM
- GI50 (NCI/ADR-RES ovarian): 1740 nM
- TGI (NCI/ADR-RES ovarian): 9250 nM
- GI50 (OVCAR-3 ovarian): 250 nM
- TGI (OVCAR-3 ovarian): 550 nM
- GI50 (OVCAR-4 ovarian): 538 nM
- TGI (OVCAR-4 ovarian): 2800 nM
- GI50 (OVCAR-5 ovarian): 1780 nM
- TGI (OVCAR-5 ovarian): 3530 nM
- GI50 (OVCAR-8 ovarian): 297 nM
- TGI (OVCAR-8 ovarian): 1680 nM
- GI50 (PC-3 prostate): 387 nM
- TGI (PC-3 prostate): 2260 nM
- GI50 (RPMI-8226 leukemia): 379 nM
- TGI (RPMI-8226 leukemia): 3570 nM
- GI50 (RXF 393 renal): 1100 nM
- TGI (RXF 393 renal): 2850 nM
- GI50 (SF-268 CNS): 367 nM
- TGI (SF-268 CNS): 1500 nM
- GI50 (SF-295 CNS): 2070 nM
- TGI (SF-295 CNS): 4630 nM
- GI50 (SF-539 CNS): 654 nM
- TGI (SF-539 CNS): 2100 nM
- GI50 (SK-MEL-2 melanoma): 945 nM
- TGI (SK-MEL-2 melanoma): 3040 nM
- GI50 (SK-MEL-28 melanoma): 1250 nM
- TGI (SK-MEL-28 melanoma): 2650 nM
- GI50 (SK-MEL-5 melanoma): 1180 nM
- TGI (SK-MEL-5 melanoma): 2620 nM
- GI50 (SK-OV-3 ovarian): 2130 nM
- TGI (SK-OV-3 ovarian): 5190 nM
- GI50 (SN12C renal): 1230 nM
- TGI (SN12C renal): 3040 nM
- GI50 (SNB-19 CNS): 1260 nM
- TGI (SNB-19 CNS): 2790 nM
- GI50 (SNB-75 CNS): 1030 nM
- TGI (SNB-75 CNS): 5980 nM
- GI50 (SR leukemia): 216 nM
- TGI (SR leukemia): 759 nM
- GI50 (SW-620 colon): 257 nM
- TGI (SW-620 colon): 725 nM
- GI50 (T-47D breast): 290 nM
- TGI (T-47D breast): 4120 nM
- GI50 (TK-10 renal): 1680 nM
- TGI (TK-10 renal): 3590 nM
- GI50 (U251 CNS): 561 nM
- TGI (U251 CNS): 1820 nM
- GI50 (UACC-257 melanoma): 1260 nM
- TGI (UACC-257 melanoma): 2780 nM
- GI50 (UACC-62 melanoma): 667 nM
- TGI (UACC-62 melanoma): 1940 nM
- GI50 (UO-31 renal): 323 nM
- TGI (UO-31 renal): 2130 nM
